In patent publication US12209079B2 (GENERAL INCORPORATED ASSOCIATION PHARMA VALLEY PROJECT …, priority 2017, dated 2025):
Structures can show the parent of a compound that is named as a salt.

Assays:
[1] = target: rhTDO (recombinant human TDO) (Homo sapiens, UniProt P48775); experiment: Enzyme assay using rhTDO (rate of kynurenine production); assay type: biochemical; details: 2 h; final concentration of the compound 10 μM; rate relative to reaction without compound; read-out: rhTDO-mediated kynurenine production
rhTDO (recombinant human TDO), sequence (P48775 whole entry): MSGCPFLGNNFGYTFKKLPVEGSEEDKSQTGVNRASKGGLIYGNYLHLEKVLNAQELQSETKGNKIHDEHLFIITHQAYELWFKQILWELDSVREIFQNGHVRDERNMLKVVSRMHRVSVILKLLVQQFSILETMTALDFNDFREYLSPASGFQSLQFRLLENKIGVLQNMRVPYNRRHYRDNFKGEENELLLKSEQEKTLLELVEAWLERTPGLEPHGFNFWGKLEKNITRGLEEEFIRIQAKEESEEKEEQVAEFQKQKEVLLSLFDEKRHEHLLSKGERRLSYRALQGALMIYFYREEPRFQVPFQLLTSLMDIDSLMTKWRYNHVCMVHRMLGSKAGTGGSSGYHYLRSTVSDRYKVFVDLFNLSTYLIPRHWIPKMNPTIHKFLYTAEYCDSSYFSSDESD
Experimental: 4 μL of a compound solution was added to 176 μL of a rhTDO reaction solution (0.5 M potassium phosphate buffer (20 μL), 0.2 M ascorbic acid (20 μL), 0.5 mM methylene blue (4 μL), 10 mg/mL catalase (2 μL), H2O (128 μL), and rhTDO (2 μL)). The mixture was pipetted and preincubated at 37° C. for 10 minutes. Then, the whole amount was brought to 200 μL by the addition of 20 μL of a 20 mM aqueous tryptophan solution, and the mixture was pipetted again and reacted at 37° C. for 120 minutes. After the reaction, the enzymatic reaction was terminated by the addition of 40 μL of a 30% [v/v] aqueous trichloroacetic acid solution to the reaction solution. The mixture was well stirred by pipetting and heated at 50° C. for 15 minutes so that N-formylkynurenine was converted to kynurenine. The reaction solution thus heated was centrifuged (15,000 rpm, 5 min, 24° C.), and 150 μL of the supernatant was transferred to a transparent 96-well flat-bottomed plate, followed by the measurement of absorbance at 490 nm using SpectraMax M5 SK (background measurement). After the measurement, a solution of 2% [w/v] p-dimethylbenzaldehyde in acetic acid was added at 150 μL/well and reacted for 5 minutes, followed by the measurement of absorbance at 490 nm again. The rate of kynurenine production was calculated according to the following expression. Rate of kynurenine production (%) for each compound in the case of using rhTDO={(Absorbance at 490 nm in the tryptophan-containing aqueous solution comprising rhTDO and the compound of the present invention−Absorbance of the background)/(Absorbance at 490 nm in the tryptophan-containing aqueous solution without the addition of the compound solution−Absorbance of the background)}×100 IDO Cell-Based Assay Protocol

[2] = target: T1, TDO in A172 cells (Homo sapiens, UniProt P48775); experiment: TDO cell-based assay, kynurenine production in A172 cells; details: A 172; final concentration of the compound 10 μM; rate relative to culture without compound
T1 construct: endogenous in cells; host or cells: A172 cells
T1 sequence (P48775 whole entry): as above
Experimental: A172 cells (3.0×10^5 cells/mL) suspended in a culture medium for assay (PRMI-1640; Wako 186-02155, 5% FBS, 50 units/mL penicillin, and 50 μg/mL streptomycin) were inoculated at 100 μL/well to a transparent 96-well flat-bottomed plate and cultured at 37° C. for 24 hours in 5% CO2. The culture medium was removed from the cells thus cultured. A culture medium for assay was added at 80 μL/well, and further, a compound solution was added at 10 μL/well. The cells were preincubated for 1 hour. Then, the whole amount was brought to 100 μL/well by the addition of 10 μL/well of a 5 mM aqueous tryptophan solution (final concentration of L-tryptophan: 524 μM), and the cells were cultured for 24 hours. After the culture, absorbance was measured at 460 nm using SpectraMax MSSK (Molecular Devices, LLC) (background measurement). After the measurement, a kynurenine quantification reagent (prepared with 7% [v/v] aqueous trichloroacetic acid solution and a solution of 2% [w/v] p-dimethylbenzaldehyde in acetic acid at 2:5 [v/v]) was added at 200 μL/well and reacted for 5 minutes, followed by the measurement of absorbance at 460 nm again. The rate of kynurenine production was calculated according to the following expression. Rate of kynurenine production (%) for each compound in the case of using A172 cells={(Absorbance at 460 nm in the tryptophan-containing culture medium comprising the A172 cells and the solution of the compound of the present invention−Absorbance of the background)/(Absorbance at 460 nm in the tryptophan-containing culture medium without the addition of the compound solution−Absorbance of the background)}×100

[3] = target: rhIDO (recombinant human IDO) (Homo sapiens, UniProt P14902); experiment: Enzyme assay using rhIDO (rate of kynurenine production); assay type: biochemical; details: 2 h; final concentration of the compound 10 μM; rate relative to reaction without compound; read-out: rhIDO-mediated kynurenine production
rhIDO (recombinant human IDO), sequence (P14902 whole entry): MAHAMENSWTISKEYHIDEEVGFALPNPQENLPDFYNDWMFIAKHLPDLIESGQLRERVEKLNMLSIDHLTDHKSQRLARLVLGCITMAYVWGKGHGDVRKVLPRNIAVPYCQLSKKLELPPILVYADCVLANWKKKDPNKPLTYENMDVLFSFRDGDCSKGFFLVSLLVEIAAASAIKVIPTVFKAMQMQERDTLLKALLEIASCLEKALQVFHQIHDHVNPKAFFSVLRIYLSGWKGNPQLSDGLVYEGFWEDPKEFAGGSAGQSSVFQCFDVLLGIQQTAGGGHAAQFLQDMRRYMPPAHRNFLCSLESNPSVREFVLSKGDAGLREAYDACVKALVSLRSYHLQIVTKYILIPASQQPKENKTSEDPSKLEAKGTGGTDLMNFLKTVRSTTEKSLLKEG
Experimental: Enzyme Assay Protocol Using rhIDO (Recombinant Human IDO)
4 μL of a compound solution was added to 176 μL of a rhIDO reaction solution (0.5 M potassium phosphate buffer (20 μL), 0.2 M ascorbic acid (20 μL), 0.5 mM methylene blue (4 μL), 10 mg/mL catalase (2 μL), H2O (128 μL), and rhIDO (2 μL)). The mixture was pipetted and preincubated at 37° C. for 10 minutes. Then, the whole amount was brought to 200 μL by the addition of 20 μL of a 2 mM aqueous tryptophan solution, and the mixture was pipetted again and reacted at 37° C. for 120 minutes. After the reaction, the enzymatic reaction was terminated by the addition of 40 μL of a 30% [v/v] aqueous trichloroacetic acid solution to the reaction solution. The mixture was well stirred by pipetting and heated at 50° C. for 15 minutes so that N-formylkynurenine was converted to kynurenine. The reaction solution thus heated was centrifuged (15,000 rpm, 5 min, 24° C.), and 150 μL of the supernatant was transferred to a transparent 96-well flat-bottomed plate, followed by the measurement of absorbance at 490 nm using SpectraMax MSSK (background measurement). After the measurement, a solution of 2% [w/v] p-dimethylbenzaldehyde in acetic acid was added at 150 μL/well and reacted for 5 minutes, followed by the measurement of absorbance at 490 nm again. The rate of kynurenine production was calculated according to the following expression. Rate of kynurenine production (%) for each compound in the case of using rhIDO={(Absorbance at 490 nm in the tryptophan-containing aqueous solution comprising rhIDO and the compound of the present invention−Absorbance of the background)/(Absorbance at 490 nm in the tryptophan-containing aqueous solution without the addition of the compound solution−Absorbance of the background)}×100 Enzyme Assay Protocol Using rhTDO (Recombinant Human TDO)

[4] = target: T2, IDO in A431 cells (Homo sapiens, UniProt P14902); experiment: IDO cell-based assay, kynurenine production in IFN-γ stimulated A431 cells; details: A-431, 24 h; final concentration of the compound 10 μM; rate relative to culture without compound
T2 construct: endogenous in cells; host or cells: A431 cells, IFN-γ stimulated
T2 sequence (P14902 whole entry): as above
Experimental: A431 cells (3.0×10^5 cells/mL) suspended in a culture medium for assay (D-MEM; Wako 040-30095, 5% FBS, 50 units/mL penicillin, 50 μg/mL streptomycin, and 2 mM L-glutamine) were inoculated at 100 μL/well to a transparent 96-well flat-bottomed plate and cultured at 37° C. for 24 hours in 5% CO2. The culture medium was removed from the cells thus cultured. A tryptophan-containing culture medium (culture medium for assay supplemented with 178 μM L-tryptophan) was added at 80 μL/well, and further, a compound solution was added at 10 μL/well. The cells were preincubated for 1 hour. Then, the whole amount was brought to 100 μL/well by the addition of 10 μL/well of IFN-γ diluted into 100 ng/mL with a tryptophan-containing culture medium, and the cells were cultured for 24 hours. After the culture, absorbance was measured at 460 nm using SpectraMax MSSK (Molecular Devices, LLC) (background measurement). After the measurement, a kynurenine quantification reagent (prepared with 7% [v/v] aqueous trichloroacetic acid solution and a solution of 2% [w/v] p-dimethylbenzaldehyde in acetic acid at 2:5 [v/v]) was added at 200 μL/well and reacted for 5 minutes, followed by the measurement of absorbance at 460 nm again. The rate of kynurenine production was calculated according to the following expression. Rate of kynurenine production (%) for each compound in the case of using A431 cells={(Absorbance at 460 nm in the tryptophan-containing culture medium comprising the A431 cells and the solution of the compound of the present invention−Absorbance of the background)/(Absorbance at 460 nm in the tryptophan-containing culture medium without the addition of the compound solution−Absorbance of the background)}×100 TDO Cell-Based Assay Protocol

Row | remaining activity at 10 µM [1] [%] | remaining activity at 10 µM [2] [%] | remaining activity at 10 µM [3] [%] | remaining activity at 10 µM [4] [%] | SMILES
1 | 6 | 10 | -1 | 13 | N/C(=N\c1ccc(Br)cc1)SCc1ccc(F)cc1CS/C(N)=N/c1ccc(Br)cc1 [Compound 126, (4-Fluoro-1,2-phenylene)bis(methylene) (E,E)-bis(N′-(4-bromophenyl)carbamimidothioate) dihydrobromide]
2 | 68 | 74 | 66 | 76 | c1cnc(SCc2ccccc2CSc2ncccn2)nc1 [Compound 16, 1,2-bis((pyrimidin-2-ylthio)methyl)benzene]
3 | 9 | 42 | 15 | 32 | N=C(N)SCc1cccc(F)c1CSC(=N)N [Compound 13, (3-fluoro-1,2-phenylene)bis(methylene) dicarbamimidothioate dihydrobromide]
4 | 7 | 3 | -2 | 11 | N/C(=N\c1cccc(Cl)c1)SCc1cc(Cl)c(Cl)cc1CS/C(N)=N/c1cccc(Cl)c1 [Compound 125, (4,5-Dichloro-1,2-phenylene)bis(methylene) (E,E)-bis(N′-(3-chlorophenyl)carbamimidothioate) dihydrobromide]
5 | 26 | 1 | 50 | 11 | Cc1ccc(C)c(CN2CN=C(SCc3ccccc3CSC3=NCN(Cc4cc(C)ccc4C)CN3)NC2)c1 [Compound 44, 1,2-Bis(((5-(2,5-dimethylbenzyl)-1,4,5,6-tetrahydro-1,3,5-triazin-2-yl)thio)methyl)benzene]
6 | 126 | 94 | 141 | 82 | O=C1CC(=O)NC(SCc2ccccc2CSC2=NC(=O)CC(=O)N2)=N1 [Compound 30, 2,2′-((1,2-phenylenebis(methylene))bis(sulfanediyl))bis(pyrimidine-4,6(1H,5H)-dione)]
7 | 31 | 4 | 52 | 7 | c1ccc(CN2CN=C(SCc3ccccc3CSC3=NCN(Cc4ccccc4)CN3)NC2)cc1 [Compound 14, 1,2-bis(((5-benzyl-1,4,5,6-tetrahydro-1,3,5-triazin-2-yl)thio)methyl)benzene]

Row | SMILES | remaining activity at 10 µM [1] [%] | remaining activity at 10 µM [2] [%] | remaining activity at 10 µM [3] [%] | remaining activity at 10 µM [4] [%]
8 | CNC(=O)c1ncccc1CSC(=N)N [Compound 98, (2-(Methylcarbamoyl)pyridin-3-yl)methyl carbamimidothioate hydrobromide] | 91 | 133 | 95 | 107
9 | Fc1ccc(CSC2=NCN(CCc3cccc(C(F)(F)F)c3)CN2)c(CSC2=NCN(CCc3cccc(C(F)(F)F)c3)CN2)c1 [Compound 150, 6,6′-(((4-Fluoro-1,2-phenylene)bis(methylene))bis(sulfanediyl))bis(3-(3-(trifluoromethyl)phenethyl)-1,2,3,4-tetrahydro-1,3,5-triazine)] | 11 | 13 | 23 | 15
10 | N#Cc1ccc(CNC(=O)c2cccc(Br)c2CSC(=N)N)cc1 [Compound 111, 2-Bromo-6-((4-cyanobenzyl)carbamoyl)benzyl carbamimidothioate hydrobromide] | 122 | 87 | 17 | 53
11 | FC(F)(F)c1ccc(CCN2CN=C(SCc3cc(Cl)c(Cl)cc3CSC3=NCN(CCc4ccc(C(F)(F)F)cc4)CN3)NC2)cc1 [Compound 143, 6,6′-(((4,5-Dichloro-1,2-phenylene)bis(methylene))bis(sulfanediyl))bis(3-(4-(trifluoromethyl)phenethyl)-1,2,3,4-tetrahydro-1,3,5-triazine)] | 6 | 7 | 17 | 9
12 | N=C(N)SCc1cc(F)c(F)cc1CSC(=N)N [Compound 131, (4,5-Difluoro-1,2-phenylene)bis(methylene) dicarbamimidothioate dihydrobromide] | 3 | 6 | 7 | 5
13 | N=C(N)SCc1ccccc1CC(=O)NCCCCc1ccccc1 [Compound 72, 2-(2-Oxo-2-((4-phenylbutyl)amino)ethyl)benzyl carbamimidothioate hydrobromide] | 47 | 68 | 70 | 69
